Assay results from ChEMBL document CHEMBL1773016, “Discovery and optimization of a series of benzothiazole phosphoinositide 3-kinase (PI3K)/mammalian target of rapamycin (mTOR) dual inhibitors” (J Med Chem, 2011).

How the values were obtained:
[1] = molecular target: Serine/threonine-protein kinase mTOR (Homo sapiens, UniProt P42345)
[2] = molecular target: Phosphatidylinositol 4,5-bisphosphate 3-kinase catalytic subunit alpha isoform (Homo sapiens, UniProt P42336)
Description: Inhibition of human PI3Kalpha expressed in Sf9 cells

in vitro [3] = details: rat, liver microsomes
Description: Clearance in rat liver microsomes

in vitro [4] = details: human, liver microsomes
Description: Clearance in human liver microsomes

Phosphatidylinositol 4,5-bisphosphate 3-kinase catalytic subunit alpha isoform, sequence (P42336 whole entry, canonical isoform): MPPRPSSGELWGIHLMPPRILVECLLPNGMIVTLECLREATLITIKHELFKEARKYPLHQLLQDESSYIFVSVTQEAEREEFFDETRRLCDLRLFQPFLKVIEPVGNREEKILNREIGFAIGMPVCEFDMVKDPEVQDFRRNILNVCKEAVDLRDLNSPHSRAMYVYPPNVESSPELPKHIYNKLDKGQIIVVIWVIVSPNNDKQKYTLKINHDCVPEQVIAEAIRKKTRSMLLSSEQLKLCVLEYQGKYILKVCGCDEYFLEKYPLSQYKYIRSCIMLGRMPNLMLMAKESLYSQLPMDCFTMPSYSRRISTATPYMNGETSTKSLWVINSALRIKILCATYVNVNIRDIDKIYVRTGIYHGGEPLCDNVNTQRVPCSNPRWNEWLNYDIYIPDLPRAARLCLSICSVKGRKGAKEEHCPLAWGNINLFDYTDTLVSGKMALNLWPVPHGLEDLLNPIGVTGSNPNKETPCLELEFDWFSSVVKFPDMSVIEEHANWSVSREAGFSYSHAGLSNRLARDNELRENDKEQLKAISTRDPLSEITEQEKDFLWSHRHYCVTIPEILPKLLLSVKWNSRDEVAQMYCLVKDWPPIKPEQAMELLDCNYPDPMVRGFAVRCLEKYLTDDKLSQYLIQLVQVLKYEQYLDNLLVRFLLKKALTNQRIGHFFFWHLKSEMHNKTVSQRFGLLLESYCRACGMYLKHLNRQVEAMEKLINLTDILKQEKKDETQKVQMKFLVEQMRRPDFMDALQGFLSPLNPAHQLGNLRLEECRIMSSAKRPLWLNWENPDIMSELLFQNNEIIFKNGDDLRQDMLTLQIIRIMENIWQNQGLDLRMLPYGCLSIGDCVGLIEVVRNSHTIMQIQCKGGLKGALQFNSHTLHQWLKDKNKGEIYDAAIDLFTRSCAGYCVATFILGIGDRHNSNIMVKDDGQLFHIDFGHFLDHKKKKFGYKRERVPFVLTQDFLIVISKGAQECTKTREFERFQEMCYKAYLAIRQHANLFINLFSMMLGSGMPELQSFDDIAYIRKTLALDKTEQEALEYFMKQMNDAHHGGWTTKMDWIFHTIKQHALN

SMILES | IC50 [1] | Ki [2] | microsomal CLint (in vitro [3]) | microsomal CLint (in vitro [4])
COc1cccc(COc2nccc(-c3ccc4nc(NC(C)=O)sc4c3)n2)c1 | > 6000 nM | 18 nM |  | 
COc1ccc(S(=O)(=O)Nc2cc(-c3ccc4nc(NC(C)=O)sc4c3)ccn2)cc1 | 29 nM |  |  | 
COc1ccc(Sc2nccc(-c3ccc4nc(NC(C)=O)sc4c3)n2)cc1 | 3010 nM | 18 nM |  | 
CC(=O)Nc1nc2ccc(-c3ccnc(OCc4cccc(F)c4)n3)cc2s1 | > 6000 nM |  |  | 
CC(=O)Nc1nc2ccc(-c3ccnc(OCc4cccc(C)c4)n3)cc2s1 | > 6000 nM | 47 nM |  | 
CC(=O)Nc1nc2ccc(-c3ccnc(OCc4ccc(F)cc4)n3)cc2s1 | > 6000 nM |  |  | 
CC(=O)Nc1nc2ccc(-c3ccnc(OCc4ccc(C)cc4)n3)cc2s1 | > 6000 nM | 58 nM |  | 
COc1ccc(COc2nccc(-c3ccc4nc(NC(C)=O)sc4c3)n2)cc1 | > 6000 nM | 58 nM |  | 
CC(=O)Nc1nc2ccc(-c3ccnc(OCc4ccncc4)n3)cc2s1 | > 6000 nM | 128 nM |  | 
CC(=O)Nc1nc2ccc(-c3ccnc(OCCCc4ccncc4)n3)cc2s1 | > 6000 nM | 114 nM |  | 
CC(=O)Nc1nc2ccc(-c3ccnc(OCCCc4cccnc4)n3)cc2s1 | 913 nM |  |  | 
CC(=O)Nc1nc2ccc(-c3ccnc(OCCCc4ccccc4)n3)cc2s1 | > 6000 nM | 32 nM |  | 
CC(=O)Nc1nc2ccc(-c3ccnc(OCCCN4CCOCC4)n3)cc2s1 | > 6000 nM |  |  | 
CC(=O)Nc1nc2ccc(-c3ccnc(NC(C)(C)c4ccccc4)n3)cc2s1 | > 6000 nM |  |  | 
COc1ccc(C(=O)Nc2nccc(-c3ccc4nc(NC(C)=O)sc4c3)n2)cc1 | > 6000 nM | 3130 nM |  | 
COc1ccc(S(=O)(=O)Nc2nccc(-c3ccc4nc(NC(C)=O)sc4c3)n2)cc1 | 57 nM |  |  | 
COc1ccc(S(=O)(=O)N(C)c2nccc(-c3ccc4nc(NC(C)=O)sc4c3)n2)cc1 | 285 nM | 76 nM | > 399 µL/min/mg | > 399 µL/min/mg
CCN(c1nccc(-c2ccc3nc(NC(C)=O)sc3c2)n1)S(=O)(=O)c1ccc(OC)cc1 | 262 nM | 62 nM |  | 
CC(=O)Nc1nc2ccc(-c3ccnc(NS(=O)(=O)c4ccccc4F)n3)cc2s1 | 45 nM | 41 nM |  | 

SMILES | IC50 [1] | Ki [2] | microsomal CLint (in vitro [3]) | microsomal CLint (in vitro [4])
CC(=O)Nc1nc2ccc(-c3ccnc(N(C)S(=O)(=O)c4ccccc4F)n3)cc2s1 | > 6000 nM |  |  | 
CC(=O)Nc1nc2ccc(-c3ccnc(NS(=O)(=O)c4cccc(F)c4)n3)cc2s1 | 47 nM | 84 nM |  | 
CC(=O)Nc1nc2ccc(-c3ccnc(NS(=O)(=O)c4ccc(F)cc4)n3)cc2s1 | 719 nM | 826 nM |  | 
CC(=O)Nc1nc2ccc(-c3ccnc(NS(=O)(=O)c4ccc(C)cc4)n3)cc2s1 | 65 nM | 82 nM |  | 
CC(=O)Nc1nc2ccc(-c3ccnc(N(C)S(=O)(=O)c4ccc(C)cc4)n3)cc2s1 | 269 nM |  | > 399 µL/min/mg | 579 µL/min/mg
CC(=O)Nc1nc2ccc(-c3ccnc(Sc4ccccc4)n3)cc2s1 | > 6000 nM |  |  | 
CC(=O)Nc1nc2ccc(-c3ccnc(SCc4ccccc4)n3)cc2s1 | > 6000 nM |  |  | 
CC(=O)Nc1nc2ccc(-c3ccnc(Oc4ccccc4)n3)cc2s1 | > 6000 nM |  |  | 
CC(=O)Nc1nc2ccc(-c3ccnc(OCc4ccccc4)n3)cc2s1 | > 6000 nM | 105 nM |  | 
CC(=O)Nc1nc2ccc(-c3ccnc(NCc4ccccc4)n3)cc2s1 | > 6000 nM | 85 nM |  | 
CC(=O)Nc1nc2ccc(-c3ccnc(Cc4ccccc4)n3)cc2s1 | > 6000 nM | 605 nM |  | 
CC(=O)Nc1nc2ccc(-c3ccnc(CCc4ccccc4)n3)cc2s1 | > 6000 nM |  |  | 
CC(=O)Nc1nc2ccc(-c3ccnc(Sc4ccccc4F)n3)cc2s1 | > 6000 nM | 46 nM |  | 
CC(=O)Nc1nc2ccc(-c3ccnc(Sc4cccc(F)c4)n3)cc2s1 | > 6000 nM | 31 nM |  | 
CC(=O)Nc1nc2ccc(-c3ccnc(Sc4ccc(F)cc4)n3)cc2s1 | > 6000 nM | 44 nM |  | 
CC(=O)Nc1nc2ccc(-c3ccnc(Sc4ccccc4C)n3)cc2s1 | > 6000 nM |  |  | 
CC(=O)Nc1nc2ccc(-c3ccnc(Sc4cccc(C)c4)n3)cc2s1 | > 6000 nM | 53 nM |  | 
CC(=O)Nc1nc2ccc(-c3ccnc(Sc4ccc(C)cc4)n3)cc2s1 | > 6000 nM | 59 nM |  | 
COc1ccccc1Sc1nccc(-c2ccc3nc(NC(C)=O)sc3c2)n1 | > 6000 nM |  |  | 

SMILES | IC50 [1] | Ki [2] | microsomal CLint (in vitro [3]) | microsomal CLint (in vitro [4])
COc1cccc(Sc2nccc(-c3ccc4nc(NC(C)=O)sc4c3)n2)c1 | > 6000 nM | 48 nM |  | 
COc1ccc(S(=O)(=O)Nc2cncc(-c3ccc4nc(NC(C)=O)sc4c3)c2)cc1 | 11 nM | 1.6 nM |  | 
COc1ccc(S(=O)(=O)Nc2cncc(-c3ccc4nc(NC(C)=O)sc4c3)n2)cc1 | 15 nM | 9 nM |  | 
COc1ccc(S(=O)(=O)Nc2cccc(-c3ccc4nc(NC(C)=O)sc4c3)c2)cc1 | 1500 nM | 48 nM |  | 
COc1ccc(S(=O)(=O)Nc2cc(-c3ccc4nc(NC(C)=O)sc4c3)cnc2C#N)cc1 | 1.6 nM | 1.4 nM |  | 
COc1ccc(S(=O)(=O)Nc2cc(-c3ccc4nc(NC(C)=O)sc4c3)cnc2C)cc1 | 6 nM | 1.2 nM |  | 
COc1ccc(S(=O)(=O)Nc2cc(-c3ccc4nc(NC(C)=O)sc4c3)cnc2Cl)cc1 | 2.1 nM | < 1 nM | > 399 µL/min/mg | 42 µL/min/mg
CC(=O)Nc1nc2ccc(-c3cnc(Cl)c(NS(=O)(=O)c4ccccc4)c3)cc2s1 | < 1 nM |  | > 399 µL/min/mg | < 14 µL/min/mg
CC(=O)Nc1nc2ccc(-c3cnc(Cl)c(NS(=O)(=O)c4ccccc4C(F)(F)F)c3)cc2s1 | < 1 nM | < 1 nM | 500 µL/min/mg | < 14 µL/min/mg
CC(=O)Nc1nc2ccc(-c3cnc(Cl)c(NS(=O)(=O)c4cccc(C(F)(F)F)c4)c3)cc2s1 | < 1 nM | < 1 nM | 36 µL/min/mg | 17 µL/min/mg
CC(=O)Nc1nc2ccc(-c3cnc(Cl)c(NS(=O)(=O)c4ccc(C(F)(F)F)cc4)c3)cc2s1 | 1.6 nM | < 1 nM | < 14 µL/min/mg | < 14 µL/min/mg
CC(=O)Nc1nc2ccc(-c3cnc(Cl)c(NS(=O)(=O)c4ccccc4Cl)c3)cc2s1 | < 1 nM | < 1 nM | > 399 µL/min/mg | < 14 µL/min/mg
CC(=O)Nc1nc2ccc(-c3cnc(Cl)c(NS(=O)(=O)c4cccc(Cl)c4)c3)cc2s1 | < 1 nM | < 1 nM | > 399 µL/min/mg | 16 µL/min/mg
CC(=O)Nc1nc2ccc(-c3cnc(Cl)c(NS(=O)(=O)c4ccc(Cl)cc4)c3)cc2s1 | < 1 nM | < 1 nM | < 14 µL/min/mg | < 14 µL/min/mg
CC(=O)Nc1nc2ccc(-c3cnc(Cl)c(NS(=O)(=O)c4cccc(C(C)(C)C)c4)c3)cc2s1 | 2.1 nM | < 1 nM | 610 µL/min/mg | 83 µL/min/mg
CC(=O)Nc1nc2ccc(-c3cnc(Cl)c(NS(=O)(=O)c4ccc(C(C)(C)C)cc4)c3)cc2s1 | 2.1 nM | < 1 nM | 460 µL/min/mg | 135 µL/min/mg
CC(=O)Nc1nc2ccc(-c3cnc(Cl)c(NS(=O)(=O)c4ccccc4F)c3)cc2s1 | 1.1 nM | < 1 nM | 320 µL/min/mg | < 14 µL/min/mg
CC(=O)Nc1nc2ccc(-c3cnc(Cl)c(NS(=O)(=O)c4cccc(F)c4)c3)cc2s1 | 2.3 nM | 1.1 nM | > 399 µL/min/mg | < 14 µL/min/mg
